pEC50, pKi: −log10 of the molar value.
Tests used:
[1] = molecular target: T1, 5-hydroxytryptamine receptor 1F (Homo sapiens, UniProt P30939); test: In vitro binding affinity for human 5-hydroxytryptamine 1F receptor
T1 sequence (P30939 whole entry): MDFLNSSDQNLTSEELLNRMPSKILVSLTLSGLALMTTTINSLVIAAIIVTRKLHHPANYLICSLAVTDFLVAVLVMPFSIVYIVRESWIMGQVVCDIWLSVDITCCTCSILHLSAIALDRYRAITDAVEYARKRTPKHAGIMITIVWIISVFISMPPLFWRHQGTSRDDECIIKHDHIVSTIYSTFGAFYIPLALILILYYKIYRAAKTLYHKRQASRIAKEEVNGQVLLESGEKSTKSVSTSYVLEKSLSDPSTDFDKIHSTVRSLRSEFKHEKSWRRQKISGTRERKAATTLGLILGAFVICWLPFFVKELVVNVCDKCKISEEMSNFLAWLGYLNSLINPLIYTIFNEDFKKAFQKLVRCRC

[2] = molecular target: T2, 5-hydroxytryptamine receptor 1A (Homo sapiens, UniProt P08908); test: In vitro binding affinity for human 5-hydroxytryptamine 1A receptor
T2 sequence (P08908 whole entry): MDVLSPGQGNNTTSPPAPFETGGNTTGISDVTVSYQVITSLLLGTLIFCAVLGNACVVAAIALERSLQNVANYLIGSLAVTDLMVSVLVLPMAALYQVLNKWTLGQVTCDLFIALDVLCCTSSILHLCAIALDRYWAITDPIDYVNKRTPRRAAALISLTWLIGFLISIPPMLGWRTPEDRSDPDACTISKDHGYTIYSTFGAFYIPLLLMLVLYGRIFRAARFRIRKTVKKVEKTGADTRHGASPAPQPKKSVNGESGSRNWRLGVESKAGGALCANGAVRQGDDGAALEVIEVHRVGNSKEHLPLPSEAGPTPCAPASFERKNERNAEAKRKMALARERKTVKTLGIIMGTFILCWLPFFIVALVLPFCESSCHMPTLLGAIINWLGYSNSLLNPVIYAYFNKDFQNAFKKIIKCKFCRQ

[3] = molecular target: T3, 5-hydroxytryptamine receptor 1B (Homo sapiens, UniProt P28222); test: Inhibitory activity against human 5-hydroxytryptamine 1B receptor; settings: concentration not given here
T3 sequence (P28222 whole entry): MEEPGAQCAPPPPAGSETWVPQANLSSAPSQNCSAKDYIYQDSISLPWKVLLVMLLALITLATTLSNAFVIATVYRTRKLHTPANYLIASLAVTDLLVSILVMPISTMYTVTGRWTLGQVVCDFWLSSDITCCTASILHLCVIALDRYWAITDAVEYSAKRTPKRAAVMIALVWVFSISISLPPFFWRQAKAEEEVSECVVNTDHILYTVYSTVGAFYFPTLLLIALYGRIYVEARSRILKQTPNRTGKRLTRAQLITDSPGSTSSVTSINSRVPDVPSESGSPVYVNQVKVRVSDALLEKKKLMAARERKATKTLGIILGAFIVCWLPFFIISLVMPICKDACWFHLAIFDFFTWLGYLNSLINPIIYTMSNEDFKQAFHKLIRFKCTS

[4] = molecular target: T4, 5-hydroxytryptamine receptor 1D (Homo sapiens, UniProt P28221); test: In vitro binding affinity for human 5-hydroxytryptamine 1D receptor
T4 sequence (P28221 whole entry): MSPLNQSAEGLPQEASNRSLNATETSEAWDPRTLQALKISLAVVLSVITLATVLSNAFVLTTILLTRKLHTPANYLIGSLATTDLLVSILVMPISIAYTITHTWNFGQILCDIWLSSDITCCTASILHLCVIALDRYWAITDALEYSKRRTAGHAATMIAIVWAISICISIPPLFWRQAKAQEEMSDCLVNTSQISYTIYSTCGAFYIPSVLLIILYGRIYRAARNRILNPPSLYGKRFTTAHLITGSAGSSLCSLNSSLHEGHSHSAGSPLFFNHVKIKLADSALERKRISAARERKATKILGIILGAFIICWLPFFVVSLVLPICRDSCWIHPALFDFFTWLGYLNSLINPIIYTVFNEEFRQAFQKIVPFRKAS

[5] = molecular target: T3, 5-hydroxytryptamine receptor 1B; test: In vitro binding affinity for human 5-hydroxytryptamine 1B receptor
[6] = molecular target: T1, 5-hydroxytryptamine receptor 1F; test: Stimulation of [35S]GTP-gamma-S, binding to cloned human 5-hydroxytryptamine 1F receptor expressed in Mouse LM(tk-) cells; assay type: functional, cell-based
[7] = molecular target: T5, 5-hydroxytryptamine receptor 1F (Homo sapiens) (UniProt P30939); test: Maximum stimulation of [35S]GTP-gamma-S, binding to human 5-hydroxytryptamine 1F receptor expressed in Mouse LM(tk-) cells relative to maximum effect of 5-HT; assay type: functional, cell-based
T5 sequence (whole entry): T1 sequence (P30939 whole entry)

[8] = species: Homo sapiens; test: Ratio of binding affinity for 5-hydroxytryptamine 1D receptor to that of 5-hydroxytryptamine 1F receptor
[9] = species: Homo sapiens; test: Ratio of binding affinity for 5-hydroxytryptamine 1A receptor to that of 5-hydroxytryptamine 1F receptor
[10] = molecular target: T4, 5-hydroxytryptamine receptor 1D; test: Inhibitory activity against human 5-hydroxytryptamine 1D receptor; settings: concentration not given here
[11] = molecular target: T4, 5-hydroxytryptamine receptor 1D; test: Inhibitory activity against 5-hydroxytryptamine 1D receptor at 10 uM
[12] = molecular target: T3, 5-hydroxytryptamine receptor 1B; test: Inhibitory activity against 5-hydroxytryptamine 1B receptor at 10 uM

| Structure (SMILES) | pKi [1] | pKi [2] | pKi [4] | Selectivity ratio [9] | further results |
| --- | --- | --- | --- | --- | --- |
| CN1CCC(C2CNc3ccc(NC(=O)c4ccc(F)cc4)cc32)CC1 (stereo in doubt; form 2) [listing 1 of 2 here] | – | – | – | – | inhibition [3]: < 50% |
| CN1CCC(N2CNc3ccc(NC(=O)c4ccc(F)cc4Cl)cc32)CC1 | 7.89 | – | – | 70 | pEC50 [6]: 7.20; Emax [7]: 98%; Selectivity ratio [8]: 80 |
| CN1CCC(N2CNc3ccc(NC(=O)c4c(F)cc(F)cc4F)cc32)CC1 | 7.77 | – | – | 50 | pEC50 [6]: 7.30; Emax [7]: 95%; Selectivity ratio [8]: 120 |
| CN1CCC(N2CCOc3ccc(NC(=O)c4ccc(F)cc4)cc32)CC1 | 6.28 | 6.07 | 5.64 | – | inhibition [3]: < 50% |
| CN1CCC(C2CNc3ccc(NC(=O)c4ccc(F)cc4)cc32)CC1 (stereo in doubt; form 1) [listing 2 of 2 here] | – | – | – | – | inhibition [3]: < 50% |
| CN1CCC(c2noc3ccc(NC(=O)c4ccc(F)cc4)cc23)CC1 | 7.77 | 6.80 | – | 10 | inhibition [11]: < 50%; inhibition [12]: < 50% |
| CN1CCC(C2CNc3ccc(NC(=O)c4ccc(F)cc4)cc32)CC1 (stereo in doubt; 3) [listing 2 of 2 here] | – | – | – | 30 | inhibition [3]: < 50%; Selectivity ratio [8]: 250 |

More lines, in order of rising pKi [1], values ahead:

| pKi [1] | pKi [2] | pKi [4] | Selectivity ratio [9] | Structure (SMILES) | further results |
| --- | --- | --- | --- | --- | --- |
| 7.92 | – | – | 10 | CN1CCC(c2noc3ccc(NC(=O)c4ccc(F)cc4F)cc23)CC1 | pEC50 [6]: 6.33; Emax [7]: 73% |
| 8.02 | 6.60 | – | – | CN1CCC(C2CNc3ccc(NC(=O)c4ccc(F)cc4)cc32)CC1 (stereo in doubt; form 2) [listing 2 of 2 here] | – |
| 8.05 | 6.62 | 5.64 | – | CN1CCC(C2CNc3ccc(NC(=O)c4ccc(F)cc4)cc32)CC1 (stereo in doubt; 3) [listing 1 of 2 here] | – |
| 8.07 | 6.60 | – | – | CN1CCC(C2CNc3ccc(NC(=O)c4ccc(F)cc4)cc32)CC1 (stereo in doubt; form 1) [listing 1 of 2 here] | – |
| 8.32 | 7.92 | 6.68 | – | CN1CCC(N2CCc3ccc(NC(=O)c4ccc(F)cc4)cc32)CC1 | pKi [5]: 6.36 |
| 8.39 | 6.51 | – | – | CN1CCC(n2ncc3ccc(NC(=O)c4ccc(F)cc4)cc32)CC1 | inhibition [10]: < 50%; pKi [5]: 5.62 |
| 8.41 | 6.06 | 5.51 | – | CN1CCC(c2n[nH]c3ccc(NC(=O)c4ccc(F)cc4)cc23)CC1 | pKi [5]: 5.64 |
| 8.44 | – | – | 30 | CN1CCC(c2noc3ccc(NC(=O)c4ccc(F)cc4Cl)cc23)CC1 | pEC50 [6]: 6.85; Emax [7]: 71% |
| 8.66 | 7.96 | 6.85 | – | CN1CCC(n2ccc3ccc(NC(=O)c4ccc(F)cc4)cc32)CC1 | pKi [5]: 6.59 |

Reference: ChEMBL document CHEMBL1137068, “Design, synthesis and evaluation of bicyclic benzamides as novel 5-HT1F receptor agonists” (Bioorg Med Chem Lett, 2004)
